The subject of series [1] is 4175-Luc+ tumors. Nature of the series: NIRF optical imaging, JAS239 biodistribution in mice bearing 4175-Luc+ tumors. It counts as in vivo, mouse. The procedure: Bioluminescence and NIRF (Ex. 745 nm; Em. 800 nm) images were acquired in an IVIS Spectrum (PerkinElmer). NIRF is measured in Average Radiant Efficiency, photons per second (p/sec) corrected for the area of the region of interest (ROI) and the efficiency of the lamp (μ Watt *cm^−2 / steradian^-1). For bioluminescence imaging, mice were injected i.p. with 150 mg/kg of firefly D-luciferin (Biosynth). Bioluminescent Radiance (p/sec/cm^2/sr) was monitored by time-course imaging until the luminescence intensity plateaued. For NIRF imaging, mice were injected i.v. with 100 μL vehicle or JAS239 (20 nmol). Two vehicle formulations were tested in mice bearing 4175-Luc+ tumors: the first was 0.1% Tween-80 / 50 mM Tris-HCl, and the second was 1% ethanol diluted in 0.9% saline. ROIs with a 20% threshold were created from the bioluminescence image using the LivingImage software (PerkinElmer) program, and this region was used to analyze intratumoral JAS239 accumulation in the NIRF images. Resected organs were placed in 24-well plates and NIRF was measured to quantify JAS239 biodistribution. For diagnostic studies, mice bearing both MCF7-EV and MCF7-CK+ tumors of approximately 200 μL were injected with 20 nmol JAS239 in Tween-80/Tris (8 mice) or in ethanol/saline (7 mice). The cohorts were euthanized after 90 min / 24h respectively, and tumor-bearing flanks were surgically exposed. NIRF from the tumor-bearing fat pads was subtracted from background muscle signal and the Average Radiant Efficiency measured.

Series [2] deals with ChoKα (Homo sapiens, UniProt P35790). Nature of the series: Confocal microscopy colocalization of JAS239 with anti-ChoKα antibody in fixed MDA-MB-231 cells. It counts as cell-based. Also noted: endogenous in cells; host or cells: MDA-MB-231. Conditions: cells pre-treated with ChoKα antibody. On the procedure: MDA-MB-231 cells plated on sterile glass coverslips were fixed in 4% paraformaldehyde, permeabilized in 0.2% Triton X-100, and blocked in 1% BSA. Staining with 0 or 200 μM JAS239 was performed 30 min prior or 1 h after application of rabbit anti-human ChoKα antibody (ab38290; Abcam, 1:1000 dilution). Coverslips were then stained with goat anti-rabbit antibody conjugated to Texas Red (Vector Laboratories; TI-1000, 1:500), dehydrated, and mounted with VectaShield (Vector Laboratories). Confocal micrographs were acquired on a Zeiss LSM 510META NLC using excitation (Ex.) 543 nm and emission (Em.) 565–615 nm for Texas Red and Ex. 633 nm and Em. > 650 nm for JAS239. The Coloc 2 FIJI software plug-in was used to assess colocalization of the anti-ChoKα antibody with JAS239 by calculating Pearson's Correlation Coefficients and Manders’ Colocalization Coefficients for at least 3 separate ROIs. […]
strongly correlated with ChoKα, unless fixed cells are pre-incubated with ChoKα antibody (Ab). (B) Manders’ Colocalization Coefficients calculated for the Texas-Red channel confirm that the majority of ChoKα is bound by JAS239 when JAS239 is present. (C) Manders’ Colocalization Coefficients calculated for the JAS239 channel indicate that the majority of JAS239 that is present intracellularly is co-distributed with ChoKα. Values represent ± SEM for 3 separate fields of view. […]

Details of series [3]: method as in PMID 10397253. Conditions: cited from earlier work.

This is an account of results in PMC5369982, “Near infrared fluorescent imaging of choline kinase alpha expression and inhibition in breast tumors” (Oncotarget, 2017).

Where two headings read alike, the source gives them in different places.

Sequence of ChoKα (P35790 whole entry): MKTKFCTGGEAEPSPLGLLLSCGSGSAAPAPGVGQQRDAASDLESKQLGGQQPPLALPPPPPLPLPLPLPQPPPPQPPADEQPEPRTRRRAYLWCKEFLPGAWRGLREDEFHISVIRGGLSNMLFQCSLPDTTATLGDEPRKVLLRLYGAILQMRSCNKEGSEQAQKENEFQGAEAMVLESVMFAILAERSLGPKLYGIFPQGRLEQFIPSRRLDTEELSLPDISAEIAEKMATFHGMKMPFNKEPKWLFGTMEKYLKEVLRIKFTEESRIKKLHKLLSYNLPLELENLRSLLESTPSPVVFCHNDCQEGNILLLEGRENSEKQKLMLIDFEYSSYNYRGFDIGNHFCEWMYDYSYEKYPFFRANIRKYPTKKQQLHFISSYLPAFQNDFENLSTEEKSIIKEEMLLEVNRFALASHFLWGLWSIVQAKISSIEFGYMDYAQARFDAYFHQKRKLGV

Regarding `CC1(C)C(=C/C=C/C=C/C=C/C2=[N+](CCO)c3ccccc3C2(C)C)N(CCO)c2ccccc21` [JAS239], in series [1] (20 nmol i.v. in Tween-80/Tris buffer), the “Initial hepatic clearance time” value is “approximately 75 min”. In addition, the “Tumor NIRF emission at 800 nm vs. control” value in series [1] (20 nmol i.v. in Tween-80/Tris buffer, 90 min) was “an order of magnitude stronger”. The “Time of maximum NIRF contrast between tumor and background” value in series [1] (20 nmol i.v. in Tween-80/Tris buffer, post-injection) worked out at 90 min. Besides, the “Time of highest tumor signal to noise” value in series [1] (20 nmol i.v. in ethanol/saline vehicle, subcutaneous tumors) is 24 h. Further, in series [1] (ethanol/saline vehicle, 24 h post-injection), the “Tumor-to-muscle ratio ex vivo” value is recorded as “nearly two-fold”. For the same compound, the “Hepatic signal compared to the Tween-80/Tris vehicle” value in series [1] (ethanol/saline vehicle, 24 h post-injection, resected organs) is given as “dropped nearly one order of magnitude”. The “JAS239 retention after ChoKα antibody pre-treatment” value in series [2] was “marked reduction in JAS239 retention”.
In the case of MN58b [reference compound], the Tolerability entry in series [3] (10 mg/kg) is listed as “lethal”; in series [3] (dosed daily for 5 days at 5 mg/kg) it was “tolerable”.
